Data as given in patent US20150246025A1, “2-PHENYL-5-HETEROCYCLYL-TETRAHYDRO-2H-PYRAN-3-AMINE COMPOUNDS FOR USE IN THE TREATMENT OF DIABETES AND ITS ASSOCIATED DISORDERS” (CADILA HEALTHCARE LIMITED, priority 2012, published 2015).

What was measured:
[1] = biological target: T1, DPP-IV enzyme (Homo sapiens, UniProt P27487); test: In vitro DPP-IV inhibitory activity using enzymatic (fluorescence-based) assay; type: biochemical; details: soluble human DPP-IV, H-Gly-Pro-AMC 200 μM, pH 7.8, 25° C., 30 min; read-out: % In-vitro DPPIV Inhibition IC50
T1 construct: soluble human proteins (DPP-IV enzyme) produced in a baculovirus expression system; made in house; host or cells: baculovirus expression system (Life Technologies)
T1 sequence (P27487 39-766 limits assumed): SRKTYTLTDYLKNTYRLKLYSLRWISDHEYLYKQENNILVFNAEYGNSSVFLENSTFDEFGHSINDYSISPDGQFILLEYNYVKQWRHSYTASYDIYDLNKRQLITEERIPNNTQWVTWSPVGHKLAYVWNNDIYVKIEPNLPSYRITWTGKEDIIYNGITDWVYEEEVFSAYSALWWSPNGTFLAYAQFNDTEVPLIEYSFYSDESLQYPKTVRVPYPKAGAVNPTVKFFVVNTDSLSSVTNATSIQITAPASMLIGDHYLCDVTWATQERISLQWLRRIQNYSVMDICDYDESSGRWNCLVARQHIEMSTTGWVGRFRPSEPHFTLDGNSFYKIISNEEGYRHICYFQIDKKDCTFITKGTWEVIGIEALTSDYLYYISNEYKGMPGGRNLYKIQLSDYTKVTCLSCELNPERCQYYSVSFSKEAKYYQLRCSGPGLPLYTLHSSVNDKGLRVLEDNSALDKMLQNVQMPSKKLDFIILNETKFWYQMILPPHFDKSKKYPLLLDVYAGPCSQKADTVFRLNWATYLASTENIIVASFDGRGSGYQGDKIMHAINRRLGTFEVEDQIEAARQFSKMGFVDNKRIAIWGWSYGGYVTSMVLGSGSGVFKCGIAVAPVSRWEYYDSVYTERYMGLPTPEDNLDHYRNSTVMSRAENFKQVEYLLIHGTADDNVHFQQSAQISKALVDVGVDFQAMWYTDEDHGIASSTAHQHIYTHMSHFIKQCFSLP
Description: In Vitro DPP-IV Inhibitory Activity Using Enzymatic Assay:
In vitro enzyme (DPP-IV) inhibitory activity was determined using fluorescence-based assay (Anal. Biochem., 200, 352, 1992). The Gly-Pro-AMC was used as a substrate (which is cleaved by the enzymes to release the fluorescent AMC) and soluble human proteins (DPP-IV enzyme) produced in a baculovirus expression system (Life Technologies) was used as the enzyme source. The H-Gly-Pro-AMC (200 μM) was incubated with DPP-IV enzyme in the presence of various concentrations (30 & 100 nM) of test compounds. Reaction was carried out at pH 7.8 (HEPES buffer 25 mM containing 1.0% BSA, 140 mM NaCl, 16 mM MgCl2, 2.8% DMSO) in a total volume of 100 μl at 25° C. for 30 min., in the dark. Reaction was terminated with acetic acid (25 μl of 25% solution). Activity (fluorescence) was measured using Spectra Max fluorometer (Molecular Devices, Sunnyvale Calif.) by exciting at 380 nm and emission at 460 nm.

[2] = test system: C57BL/6J mice; test: In vivo antihyperglycaemic/antidiabetic activity (OGTT), acute single dose 120-min time-course; details: Mus musculus, 2 h; male C57BL/6J mice, acute single dose 0,3 mg/kg po, 120-min time-course, n = 6, Mean ± SEM; read-out: In vivo OGTT C57; % Glucose change
Description: Acute single dose 120-min time-course experiments were carried out in male C57BL/6J mice, age 8-12 weeks, bred in-house. Animals were housed in groups of 6 animals per cage, for a week, in order to habituate them to vivarium conditions (25±4° C., 60-65% relative humidity, 12: 12 h light: dark cycle, with lights on at 7.30 am). All the animal experiments were carried out according to the internationally valid guidelines following approval by the ‘Zydus Research Center animal ethical committee’.
The in-vivo glucose lowering properties of the test compounds were evaluated in C57BL/6J (mild hyperglycemic) animal models as described below. Two days prior to the study, the animals were randomized and divided into groups (n=6), based upon their fed glucose levels. On the day of experiment, food was withdrawn from all the cages, water was given ad-libitum and were kept for overnight fasting. Vehicle (normal saline)/test compounds were administered orally, on a body weight basis. Soon after the 0 min. blood collection from each animal, the subsequent blood collections were done at 30, 60 and 120 or upto 240 min., via retro-orbital route, under light ether anesthesia (Diabetes Obesity Metabolism, 7, 307, 2005; Diabetes, 52, 751, 2003).
Blood samples were centrifuged and the separated serum was immediately subjected for the glucose estimation. Serum for insulin estimation was stored at −70° C. until used for the insulin estimation. The glucose estimation was carried out with DPEC-GOD/POD method (Ranbaxy Fine Chemicals Limited, Diagnostic division, India), using Spectramax-190, in 96-microwell plate reader (Molecular devices Corporation, Sunnyvale, Calif.). […] The AUC and BCAUC obtained from graphs were analyzed for one way ANOVA, followed by Dunnett's post test, using Graph Pad prism software.

Structure (SMILES) | IC50 [1] | change in vivo at 0.3 mg/kg [2]
N[C@H]1C[C@@H](N2CC3=C(CN(C(=O)C4CCCC4)C3)C2)CO[C@@H]1c1cc(F)ccc1F [Compound 25, (5-((3R,5S,6R)-5-amino-6-(2,5-difluorophenyl)tetrahydro-2H-pyran-3-yl)-5,6-dihydropyrrolo[3,4-c]pyrrol-2(1H,3H,4H)-yl)(cyclopentyl)methanone] | < 30 nM | -12.2 ± 2.5%
N[C@H]1C[C@@H](N2CC3=C(CN(C(=O)C4CCCCC4)C3)C2)CO[C@@H]1c1cc(F)ccc1F [Compound 26, (5-((3R,5S,6R)-5-amino-6-(2,5-difluorophenyl)tetrahydro-2H-pyran-3-yl)-5,6-dihydropyrrolo[3,4-c]pyrrol-2(1H,3H,4H)-yl)(cyclohexyl)methanone] | < 30 nM | -20.1 ± 1.4%
COC(=O)N1CC2=C(C1)CN([C@H]1CO[C@H](c3cc(F)ccc3F)[C@@H](N)C1)C2 [Compound 27, (2R,3S,5R)-2-(2,5-difluorophenyl)-5-(5-(methoxycarbonyl)-5,6-dihydropyrrolo-[3,4-c]pyrrol-2(1H,3H,4H)-yl)tetrahydro-2H-pyran-3-amine] | < 10 nM | -13.7 ± 1.2%
CCOC(=O)N1CC2=C(C1)CN([C@H]1CO[C@H](c3cc(F)ccc3F)[C@@H](N)C1)C2 [Compound 28, (2R,3S,5R)-2-(2,5-difluorophenyl)-5-(5-(ethoxycarbonyl)-5,6-dihydropyrrolo[3,4-c]pyrrol-2(1H,3H,4H)-yl)tetrahydro-2H-pyran-3-amine] | < 10 nM | -35 ± 6.1%
N[C@H]1C[C@@H](N2CC3=C(C2)CN(S(=O)(=O)C(F)(F)F)C3)CO[C@@H]1c1cc(F)ccc1F [Compound 29, (2R,3S,5R)-2-(2,5-difluorophenyl)-5-(5-((trifluoromethyl)sulfonyl)-5,6-dihydropyrrolo[3,4-c]pyrrol-2(1H,3H,4H)-yl)tetrahydro-2H-pyran-3-amine] | < 30 nM | -27.7 ± 3.1%
CC(C)S(=O)(=O)N1CC2=C(CN([C@H]3CO[C@H](c4cc(F)ccc4F)[C@@H](N)C3)C2)C1 [Compound 31, (2R,3S,5R)-2-(2,5-difluorophenyl)-5-(5-(isopropylsulfonyl)-5,6-dihydropyrrolo[3,4-c]pyrrol-2(1H,3H,4H)-yl)tetrahydro-2H-pyran-3-amine] | < 10 nM | -28.1 ± 3.2%
N[C@H]1C[C@@H](N2CC3=C(C2)CN(S(=O)(=O)c2ccc(OC(F)(F)F)cc2)C3)CO[C@@H]1c1cc(F)ccc1F [Compound 35, (2R,3S,5R)-2-(2,5-difluorophenyl)-5-(5-((4-(trifluoromethoxy)phenyl)sulfonyl)-5,6-dihydropyrrolo[3,4-c]pyrrol-2(1H,3H,4H)-yl)tetrahydro-2H-pyran-3-amine] | < 30 nM | -20.5 ± 3.8%
N[C@H]1C[C@@H](N2CC3=C(C2)CN(S(=O)(=O)c2ccc(F)cc2F)C3)CO[C@@H]1c1cc(F)ccc1F [Compound 36, (2R,3S,5R)-2-(2,5-difluorophenyl)-5-(5-((2,4-difluorophenyl)sulfonyl)-5,6-dihydropyrrolo[3,4-c]pyrrol-2(1H,3H,4H)-yl)tetrahydro-2H-pyran-3-amine] | < 10 nM | -22.2 ± 2.5%
Cc1ccc(S(=O)(=O)N2CC3=C(CN([C@H]4CO[C@H](c5cc(F)ccc5F)[C@@H](N)C4)C3)C2)cc1 [Compound 37, (2R,3S,5R)-2-(2,5-difluorophenyl)-5-(5-tosyl-5,6-dihydropyrrolo[3,4-c]pyrrol-2(1H,3H,4H)-yl)tetrahydro-2H-pyran-3-amine] | < 30 nM | -25.1 ± 3.2%
CC(C)c1ccc(S(=O)(=O)N2CC3=C(CN([C@H]4CO[C@H](c5cc(F)ccc5F)[C@@H](N)C4)C3)C2)cc1 [Compound 39, (2R,3S,5R)-2-(2,5-difluorophenyl)-5-(5-((4-isopropylphenyl)sulfonyl)-5,6-dihydropyrrolo[3,4-c]pyrrol-2(1H,3H,4H)-yl)tetrahydro-2H-pyran-3-amine] | < 10 nM | -25.1 ± 3.6%
CC(C)CS(=O)(=O)N1CC2=C(CN([C@H]3CO[C@H](c4cc(F)ccc4F)[C@@H](N)C3)C2)C1 [Compound 42, (2R,3S,5R)-2-(2,5-difluorophenyl)-5-(5-(isobutylsulfonyl)-5,6-dihydropyrrolo[3,4-c]pyrrol-2(1H,3H,4H)-yl)tetrahydro-2H-pyran-3-amine] | < 30 nM | -25.1 ± 2.8%
N[C@H]1C[C@@H](N2CC3CS(=O)(=O)CC3C2)CO[C@@H]1c1cc(F)ccc1F (stereo partly drawn) [Compound 43, 5-((3R,5S,6R)-5-amino-6-(2,5-difluorophenyl)tetrahydro-2H-pyran-3-yl)hexahydro-1H-thieno[3,4-c]pyrrole 2,2-dioxide] | < 30 nM | -15.5 ± 3.6%

The next lines start with results.

IC50 [1] | Structure (SMILES) | change in vivo at 0.3 mg/kg [2]
< 10 nM | CCS(=O)(=O)N1CC2=C(CN([C@H]3CO[C@H](c4cc(F)ccc4F)[C@@H](N)C3)C2)C1 [Compound 30, (2R,3S,5R)-2-(2,5-difluorophenyl)-5-(5-(ethylsulfonyl)-5,6-dihydropyrrolo[3,4-c]pyrrol-2(1H,3H,4H)-yl)tetrahydro-2H-pyran-3-amine] | -35 ± 1.4%
< 10 nM | N[C@H]1C[C@@H](N2CC3=C(C2)CN(S(=O)(=O)c2ccccc2)C3)CO[C@@H]1c1cc(F)ccc1F [Compound 32, (2R,3S,5R)-2-(2,5-difluorophenyl)-5-(5-(phenylsulfonyl)-5,6-dihydropyrrolo[3,4-c]pyrrol-2(1H,3H,4H)-yl)tetrahydro-2H-pyran-3-amine] | -25.3 ± 3.9%
< 30 nM | N[C@H]1C[C@@H](N2CC3=C(C2)CN(S(=O)(=O)c2ccc(F)cc2)C3)CO[C@@H]1c1cc(F)ccc1F [Compound 33, (2R,3S,5R)-2-(2,5-difluorophenyl)-5-(5-((4-fluorophenyl)sulfonyl)-5,6-dihydropyrrolo[3,4-c]pyrrol-2 (1H,3H,4H)-yl)tetrahydro-2H-pyran-3-amine] | -16.8 ± 1.6%
< 10 nM | N#Cc1ccc(S(=O)(=O)N2CC3=C(CN([C@H]4CO[C@H](c5cc(F)ccc5F)[C@@H](N)C4)C3)C2)cc1 [Compound 34, 4-((5-((3R,5S,6R)-5-amino-6-(2,5-difluorophenyl)tetrahydro-2H-pyran-3-yl)-5,6-dihydropyrrolo[3,4-c]pyrrol-2(1H,3H,4H)-yl)sulfonyl)benzonitrile] | -30.1 ± 3.4%
< 10 nM | COc1ccc(S(=O)(=O)N2CC3=C(CN([C@H]4CO[C@H](c5cc(F)ccc5F)[C@@H](N)C4)C3)C2)cc1 [Compound 38, (2R,3S,5R)-2-(2,5-difluorophenyl)-5-(5-((4-methoxyphenyl)sulfonyl)-5,6-dihydropyrrolo[3,4-c]pyrrol-2(1H,3H,4H)-yl)tetrahydro-2H-pyran-3-amine] | -22 ± 2.6%
< 30 nM | N[C@H]1C[C@@H](N2CC3=C(C2)CN(S(=O)(=O)c2ccc(C(F)(F)F)cc2)C3)CO[C@@H]1c1cc(F)ccc1F [Compound 40, (2R,3S,5R)-2-(2,5-difluorophenyl)-5-(5-((4-(trifluoromethyl)phenyl)sulfonyl)-5,6-dihydropyrrolo[3,4-c]pyrrol-2(1H,3H,4H)-yl)tetrahydro-2H-pyran-3-amine] | -14 ± 1.5%
< 100 nM | CC(=O)N1CC2=C(C1)CN([C@H]1CO[C@H](c3cc(F)ccc3F)[C@@H](N)C1)C2 [Compound 41, (2R,3S,5R)-5-(5-acetyl-5,6-dihydropyrrolo[3,4-c]pyrrol-2(1H,3H,4H)-yl)-2-(2,5-difluorophenyl)tetrahydro-2H-pyran-3-amine] | -6.04 ± 2.6%
< 30 nM | N[C@H]1C[C@@H](N2CC3=C(CNC3)C2)CO[C@@H]1c1cc(F)ccc1F [Compound 44, (2R,3S,5R)-2-(2,5-difluorophenyl)-5-(5,6-dihydropyrrolo[3,4-c]pyrrol-2(1H,3H,4H)-yl)tetrahydro-2H-pyran-3-amine] | -12.5 ± 1.5%
